Laboratory results published in PubChem BioAssay AID825 (PCMD, 2007).
Results filed as inconclusive are left out. Activity calls are given as the source filed them. How the calls were made is not given here.

Molecular target: Procathepsin L (Homo sapiens) (UniProt P07711)
Assay: IC50 of CTSL protease blockers – biochemical, confirmation, dose response (AID 825)
Conditions: purified cathepsin L enzyme activity, signal read-out

Sequence of Procathepsin L (Homo sapiens) (P07711 114-288 limits assumed): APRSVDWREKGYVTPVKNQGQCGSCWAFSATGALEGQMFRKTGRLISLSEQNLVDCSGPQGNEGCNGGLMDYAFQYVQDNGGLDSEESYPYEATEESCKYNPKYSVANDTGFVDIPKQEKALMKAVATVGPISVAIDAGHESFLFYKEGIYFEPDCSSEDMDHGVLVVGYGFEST
Sequence of Procathepsin L (Homo sapiens) (P07711 292-333 limits assumed): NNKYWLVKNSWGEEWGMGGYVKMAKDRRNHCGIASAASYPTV

Row | Compound | IC50
1 | COc1ccc(OC)c(C2C(C#N)=C(N)Oc3cc(C)n(Cc4ccccn4)c(=O)c32)c1 (configuration not stated) | > 50 µM (inactive)
2 | CC(=O)Nc1nc2n(n1)C(c1ccc(F)cc1)C=C(c1ccccc1)N2 (configuration not stated) | > 50 µM (inactive)
